Patent US11247998B2, “Piperazine heteroaryl derivative, preparation method therefor and use of same in medicine” (priority 2017, dated 2022)

Key:
[1] = tested on: HBV DNA replication in HepG2.2.15 cells; experiment: In vitro anti-HBV activity test (quantitative assay of intracellular HBV DNA), HepG2.2.15 cells, quantitative PCR; assay type: cell-based, hepatitis B virus (HBV); settings: Hepatitis B virus, HBV DNA by quantitative PCR; for EC50: compound treatment Day 2 to Day 8; for Emax: read-out: Emax (effect value of the compound to maximally inhibit HBV DNA replication)
Procedure: In vitro anti-HBV activity test of the compound of the present invention (quantitative assay of intracellular HBV DNA)
HepG2.2.15 cell is a stable expression cell line that has integrated HBV genome.
Virus particles containing HBV DNA can be synthesized by replication, transcription and encapsidation in the cells, and then secreted. In this study, the quantitative analysis of HBV DNA produced by HepG2.2.15 in vitro proliferation was carried out by quantitative PCR method, thereby determining the activity of the compound of the present invention on inhibiting the HBV DNA replication by inhibiting the assembly of HBV capsid protein.
HepG2.2.15 cells were cultured in DMEM/high glucose medium (10% FBS, […] G418) and passaged every three days. On the day of the experiment, a cell suspension was prepared with fresh cell culture medium, and incubated in a 96-well plate (Corning, #3599) at 40,000 cells/well, at 5% carbon dioxide, 37° C. On Day 2, the compound was dissolved in pure DMSO at a concentration of 20 mM, and then the first concentration of 2 mM was formulated with DMSO, and diluted in 4-fold concentration gradient to 8 concentrations. A control well was added with 90 μl of DMSO. The compound solution was diluted 200-fold with DMEM/high glucose medium. The cell culture plate inoculated on Day 1 was taken out. The medium in the wells was removed by a negative pressure suction device, and the formulated medium containing the compound at each concentration was added respectively to each well at 200 μl/well. The plate was incubated at 37° C. for 72 hours. On Day 5, the medium of the cultured cells was replaced with fresh medium containing the same compound in the same way as Day 2, and then the plate was incubated at 37° C. for 72 hours. On Day 8, the cell culture plate was taken out, centrifuged at 300 g for 3 minutes, and the culture supernatant was collected at 200 μl/well. HBV DNA was extracted from the cell culture supernatant with Qiagen automatic DNA extraction device, and the specific method referred to the instructions of the reagents and instruments. Finally, the extracted DNA was eluted with DNA elution buffer at 100 μl/well. The extracted DNA was subjected to quantitative PCR analysis of HBV DNA using Hepatitis B virus nucleic acid quantitative detection kit (Triplex International Biosciences Co., Ltd.), and the specific method referred to the instruction of the kit. The quantitative standard curve was obtained with the standard sample provided in the kit, and the experiments were performed in parallel. Quantitative conversion of each sample was carried out according to the standard curve. Finally, the EC50 value of the compound was calculated with Graphpad Prism software according to each concentration of the compound and the corresponding DNA value.
The in vitro activity of the compound of the present invention on inhibiting the HBV DNA replication by inhibiting the assembly of HBV capsid protein was determined by the above experiment.

[2] = Effect on in vitro proliferation of HepG2 cells (CellTiter-Glo); assay type: cell-based; settings: human; HepG2 cells, 72 hours, CellTiter-Glo
Procedure: Test Example 2. Effect of the Compound of the Present Invention on In Vitro Proliferation of HepG2 Cells
HepG2 cells in logarithmic growth phase were taken and digested with trypsin to prepare a cell suspension, which was incubated in a 96-well plate (transparent bottom white 96-well plate, PerkinElmer) at 6,000 cells/well, at 5% carbon dioxide, 37° C. for 16-20 hours. On Day 2, the compound was dissolved in pure DMSO at a concentration of 20 mM. The compound was diluted in 3-fold concentration gradient using an automatic pipetting station (Bravo), 8 concentration points for each compound, and the control well was DMSO. The compound formulated in DMSO at each concentration point was diluted 200-fold with EMEM (containing 10% FBS) medium. The cell culture plate inoculated on Day 1 was taken out. The medium in the wells was removed by a negative pressure suction device, and the formulated medium containing the compound at each concentration was added respectively to each well at 100 μl/well. The plate was incubated at 37° C. for 72 hours. On Day 5, the 96-well cell culture plate was taken out, and freshly formulated CellTiter Glo was added to each well at 100 μl/well. The 96-well plate was left to stand for 5-10 minutes, the bottom was then sealed with a white bottom sealing film (PerkinElmer). The plate was placed in the microplate reader to measure the luminescence signal. The CC50 value of the compound was calculated with Graphpad Prism software according to each concentration of the compound and the corresponding proliferation inhibition signal value.
The inhibition effect of the compound of the present invention on in vitro proliferation of HepG2 cells was determined by the above experiment.

[3] = Pharmacokinetics assay in rats after intragastrical administration (LC/MS/MS of plasma); assay type: in vivo; settings: both sexes, rat, plasma, po, SD rats, 2 mg/kg
Procedure: Pharmacokinetics assay of the compound of the present invention
Rats were used as test animals. The drug concentration in plasma at different time points was determined by LC/MS/MS method after intragastrical administration of the compound of Example 1, the compound of Example 2, the compound of Example 4, the compound of Example 6, the compound of Example 7, the compound of Example 11, the compound of Example 39, the compound of Example 42, the compound of Example 44, the compound of Example 45 and the compound of Example 47 to rats. The pharmacokinetic behavior and property of the compound of the present invention were studied and evaluated in rats.
44 Healthy adult SD rats (half male and half female, 4 rats/group) were purchased from Shanghai Jiesijie Laboratory Animal Co., LTD, with Certificate No.: SCXK (Shanghai) 2013-0006.
A certain amount of the test compound was weighed, and added with 5% by volume of DMSO, 5% by volume of tween 80 and 90% by volume of normal saline to prepare a 0.2 mg/mL colorless, clear and transparent solution.
After an overnight fast, SD rats were administrated intragastrically with the test compound at an administration dose of 2.0 mg/kg and an administration volume of 10.0 mL/kg.
The rats were intragastrically administrated the compound of Example 1, the compound of Example 2, the compound of Example 4, the compound of Example 6, the compound of Example 7, the compound of Example 11, the compound of Example 39, the compound of Example 42, the compound of Example 44, the compound of Example 45 and the compound of Example 47. 0.1 ml of blood was taken from the orbit before administration and at 0.5, 1.0, 2.0, 4.0, 6.0, 8.0, 11.0 and 24.0 hours after administration. The samples were stored in heparinized tubes, and centrifuged for 10 minutes at 3500 rpm to separate the blood plasma. The plasma samples were stored at −20° C. The rats were fed two hours after administration.
The content of the test compound in the plasma of rats after intragastrical administration of the test compound at different concentrations was determined: 25 μL of rat plasma at each time after administration was taken, added with 40 μL of the internal standard solution of camptothecin (100 ng/mL) and 200 μL of acetonitrile, vortex-mixed for 5 minutes, and centrifuged for 10 minutes (4000 rpm). 0.2 μL of the supernatant was taken from the plasma samples for LC/MS/MS analysis.

Compound | EC50 [1] [nM] | Emax [1] [%] | CC50 at 72 h [2] [nM] | also measured
C[C@H]1Cn2cnc(C(=O)N3CCCC3)c2CN1C(=O)Nc1ccc(F)c(F)c1 [Example 59, (S)—N-(3,4-Difluorophenyl)-6-methyl-1-(pyrrolidine-1-carbonyl)-5,6-dihydroimidazo[1,5-α]pyrazine-7(8H)-carboxamide, reference compound] | 5270 | 90 |  | 
C[C@H]1Cn2ncc(C(=O)NC3(C)COC3)c2CN1C(=O)Nc1cc(F)c(F)c(F)c1 [Example 14, (S)-6-Methyl-N^3-(3-methyloxetan-3-yl)-N^5-(3,4,5-trifluorophenyl)-6,7-dihydropyrazolo[1,5-a]pyrazine-3,5(4H)-dicarboxamide] | 44 | 100 | > 100000 | 
C[C@H]1Cn2cnc(C(=O)NC3(C)CC3)c2CN1C(=O)Nc1ccc(F)c(C#N)c1 [Example 48, (S)—N^7-(3-Cyano-4-fluorophenyl)-6-methyl-N^1-(1-methylcyclopropyl)-5,6-dihydroimidazo[1,5-α]pyrazine-1,7(8H)-dicarboxamide] | 93 | 98 | > 100000 | 
C[C@H]1Cn2cnc(C(=O)NC3(C)COC3)c2CN1C(=O)Nc1cc(F)c(F)c(F)c1 [Example 13, (S)-6-Methyl-N^1-(3-methyloxetan-3-yl)-N^7-(3,4,5-trifluorophenyl)-5,6-dihydroimidazo[1,5-α]pyrazine-1,7(8H)-dicarboxamide] | 35 | 100 | > 100000 | 
C[C@@H](NC(=O)c1nnn2c1CN(C(=O)Nc1cc(F)c(F)c(F)c1)CC2)C(F)(F)F [Example 17, (R)—N^5-(3,4,5-Trifluorophenyl)-N^3-(1,1,1-trifluoropropan-2-yl)-6,7-dihydro-[1,2,3]triazolo[1,5-α]pyrazine-3,5(4H)-dicarboxamide] | 70 | 80 | > 100000 | 
C[C@@H](NC(=O)c1ncn2c1CN(C(=O)Nc1cc(F)c(F)c(F)c1)CC2)C(F)(F)F [Example 1, (R)—N^7-(3,4,5-Trifluorophenyl)-N^1-(1,1,1-trifluoropropan-2-yl)-5,6-dihydroimidazo[1,5-α]pyrazine-1,7(8H)-dicarboxamide] |  |  |  | Vd/F ([3]; read-out: Apparent distribution volume Vz/F): 2.36 ± 0.245 L/kg; AUC ([3]; read-out: Area under curve AUC): 14400 ± 3010 ng·h/mL; bioavailability ([3]; read-out: Bioavailability (%) F %): 119%; CL/F ([3]; read-out: Clearance CLz/F): 2.39 ± 0.5 mL/min/kg; half-life ([3]; read-out: Half-life T1/2 (converted)): 11.7 ± 2.3 h; Cmax ([3]; read-out: Plasma concentration Cmax): 640 ± 102 ng/mL; MRT ([3]; read-out: Residence time MRT): 17.4 ± 3 h
C[C@H]1Cn2cnc(C(=O)NC(C)(C)C)c2CN1C(=O)Nc1ccc(F)c(F)c1 [Example 12, (S)—N^1-(Tert-butyl)-N^7-(3,4-difluorophenyl)-6-methyl-5,6-dihydroimidazo[1,5-α]pyrazine-1,7-(8H)-dicarboxamide] | 32 | 100 | > 100000 | 
C[C@@H](NC(=O)c1cnn2c1CN(C(=O)Nc1ccc(F)c(C#N)c1)CC2)C(F)(F)F [Example 9, (R)—N^5-(3-Cyano-4-fluorophenyl)-N^3-(1,1,1-trifluoropropan-2-yl)-6,7-dihydropyrazolo[1,5-α]pyrazine-3,5(4H)-dicarboxamide] | 28 | 100 | > 100000 | 
C[C@H]1Cn2ncc(C(=O)NC(C)(C)C)c2CN1C(=O)Nc1cc(F)c(F)c(F)c1 [Example 10, (S)—N^3-(Tert-butyl)-6-methyl-N^5-(3,4,5-trifluorophenyl)-6,7-dihydropyrazolo[1,5-α]pyrazine-3,5(4H)-dicarboxamide] | 29 | 100 | > 100000 | 
C[C@H](NC(=O)c1ncn2c1CN(C(=O)Nc1ccc(F)c(F)c1)[C@@H](C)C2)C(F)(F)F [Example 41, (S)—N^7-(3,4-Difluorophenyl)-6-methyl-N^1—((S)-1,1,1-trifluoropropan-2-yl)-5,6-dihydroimidazo[1,5-α]pyrazine-1,7(8H)-dicarboxamide] | 24 | 100 | > 100000 | 
